Key:
Format in all cases: cell-based
[1] = biological target: T1, LFA-1 (Homo sapiens, UniProt P20701); assay: V well cell adhesion assay, LFA-1-mediated Jurkat cell binding to ICAM-1 (LFA-1 adhesion); details: Jurkat cells on ICAM-1/Fc; mean ±SD of ≥3 independent experiments in triplicates or single experiments in triplicates
T1 construct: endogenous in cells; host or cells: Jurkat cells
Protocol: Cell-Based Assay to Determine the Effect of the Compounds on LFA-1-Mediated Cell Adhesion (LFA-1 Adhesion)
Purpose of the Assay: The V well cell adhesion assay measures the ability of the compounds to interfere with LFA-1-mediated binding to ICAM-1 at cellular level. The assay has been successfully used in the past to identify and characterize small molecules LFA-1 inhibitors.
Experimental Protocol: The adhesion assay was performed in Vbottom 96-well plates as described previously [Weitz-Schmidt 2012]. Briefly, the plates were coated with anti-human IgG mAb diluted in coating buffer (20 mM Tris containing 150 mM NaCl, pH 8) (1 μg/mL) and incubated overnight at 4° C. The plates were flicked out and blocked with blocking buffer (50 mM Tris base, 150 mM NaCl, 1.5% BSA (w/v), pH 7.2) at 37° C. for 90 min. Then human recombinant ICAM-1/Fc (R&D Systems) diluted in coating buffer (0.3 μg/mL) was added to each well. The plates were incubated at 37° C. for 90 min and washed with binding buffer (50 mM Tris base, 150 mM NaCl, 1.5% BSA (w/v), 2 mM MgCl2, 2 mM MnCl2, 5 mM D-glucose monohydrate, pH 7.2-7.4) to remove unbound ligand.
Jurkat cells were cultured under standard conditions as recommended by the American Type Culture collection (ATCC). The cells were fluorescently labelled with BCECF-AM in PBS (1 μg/mL) at 37° C. for 20 min in the dark, centrifuged and washed with PBS. The test compounds were dissolved in DMSO at 10 mM and serially pre-diluted in DMSO (100%) to avoid precipitation, before performing final dilution steps in binding buffer.
The labelled Jurkat cells were re-suspended in binding buffer and test compounds or solvent control were added. The DMSO concentration was kept constant in all samples (1% DMSO as final assay concentration). After 40 min at 37° C. (LFA-1 activation and compound pre-incubation step) the cell suspension (3×10^5 cells/mL in binding buffer) was pipetted up and down and transferred to the ligand-coated microtiter V well plates (30 000 cells/well). The plates were centrifuged for 4 min at room temperature (rt) at 1000 rpm (Centrifuge Eppendorf 5810 R), setting the brake off Non-adherent cells that accumulated in the center of the Vbottom were quantified using a fluorescence reader with the filter sets allowing excitation at 485 nm and quantification of emission at 535 nm. The determination of the half maximal inhibitory concentration (IC50) of the compounds was calculated using the software GraphPad Prism 6.

[2] = biological target: T2, VLA-4 (Homo sapiens, UniProt P05556+P13612); assay: V well cell adhesion assay, VLA-4-mediated Jurkat cell binding to VCAM-1 (VLA-4 adhesion); details: Jurkat cells on VCAM-1 Fc; single experiments run in triplicates
T2 construct: endogenous in cells; host or cells: Jurkat cells
T2 sequence (P13612 34-1032): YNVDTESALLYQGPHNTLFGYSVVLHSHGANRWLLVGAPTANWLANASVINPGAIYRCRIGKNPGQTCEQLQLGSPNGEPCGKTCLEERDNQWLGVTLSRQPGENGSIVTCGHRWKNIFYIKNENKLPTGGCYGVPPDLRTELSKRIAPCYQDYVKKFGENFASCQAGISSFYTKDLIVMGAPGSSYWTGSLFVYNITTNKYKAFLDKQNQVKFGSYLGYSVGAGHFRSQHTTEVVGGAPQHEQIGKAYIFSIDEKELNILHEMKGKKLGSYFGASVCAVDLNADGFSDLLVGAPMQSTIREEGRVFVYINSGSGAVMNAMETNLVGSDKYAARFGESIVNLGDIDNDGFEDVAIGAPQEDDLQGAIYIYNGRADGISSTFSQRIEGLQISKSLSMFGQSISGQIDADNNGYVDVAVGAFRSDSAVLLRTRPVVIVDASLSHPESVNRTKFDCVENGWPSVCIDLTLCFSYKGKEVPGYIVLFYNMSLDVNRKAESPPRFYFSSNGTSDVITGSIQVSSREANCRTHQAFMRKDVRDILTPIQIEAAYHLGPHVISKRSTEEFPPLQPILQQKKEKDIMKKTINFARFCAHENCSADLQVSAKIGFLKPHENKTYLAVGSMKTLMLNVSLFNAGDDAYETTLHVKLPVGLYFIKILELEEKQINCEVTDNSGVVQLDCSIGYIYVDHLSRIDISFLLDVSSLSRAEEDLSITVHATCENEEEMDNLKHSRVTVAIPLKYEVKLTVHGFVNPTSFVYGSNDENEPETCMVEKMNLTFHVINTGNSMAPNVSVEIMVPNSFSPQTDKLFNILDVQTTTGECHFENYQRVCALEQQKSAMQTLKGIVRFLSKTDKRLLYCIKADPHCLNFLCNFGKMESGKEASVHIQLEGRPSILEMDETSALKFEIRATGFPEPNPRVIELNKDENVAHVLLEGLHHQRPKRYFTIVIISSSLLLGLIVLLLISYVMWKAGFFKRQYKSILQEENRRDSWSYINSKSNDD
T2 sequence (P05556 21-798): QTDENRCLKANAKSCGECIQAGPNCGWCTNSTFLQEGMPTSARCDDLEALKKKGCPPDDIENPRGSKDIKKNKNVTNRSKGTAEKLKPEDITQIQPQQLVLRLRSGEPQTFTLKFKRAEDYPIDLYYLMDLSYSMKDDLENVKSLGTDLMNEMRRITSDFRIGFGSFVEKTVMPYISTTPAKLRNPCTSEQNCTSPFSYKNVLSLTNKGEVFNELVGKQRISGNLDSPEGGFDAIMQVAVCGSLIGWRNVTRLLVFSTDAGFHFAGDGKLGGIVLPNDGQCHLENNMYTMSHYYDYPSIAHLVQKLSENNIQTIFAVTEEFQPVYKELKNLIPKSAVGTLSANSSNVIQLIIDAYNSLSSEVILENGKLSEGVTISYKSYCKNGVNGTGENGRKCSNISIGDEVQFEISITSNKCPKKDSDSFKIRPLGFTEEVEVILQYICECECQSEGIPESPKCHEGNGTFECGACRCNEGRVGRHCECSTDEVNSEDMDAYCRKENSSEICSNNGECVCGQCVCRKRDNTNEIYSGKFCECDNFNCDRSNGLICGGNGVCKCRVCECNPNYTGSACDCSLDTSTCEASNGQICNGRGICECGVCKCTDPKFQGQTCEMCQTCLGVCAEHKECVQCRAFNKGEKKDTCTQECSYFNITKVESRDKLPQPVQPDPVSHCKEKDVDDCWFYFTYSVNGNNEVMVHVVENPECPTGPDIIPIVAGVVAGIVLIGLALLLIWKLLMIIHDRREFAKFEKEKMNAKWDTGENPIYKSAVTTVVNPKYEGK
Protocol: Cell-Based Assay to Determine the Selectivity of the Compounds Over the Integrin VLA-4 (VLA-4 Adhesion)
Purpose of the Assay: This V well cell adhesion assay measures the effect of the compounds on VLA-4-mediated Jurkat cell binding to VCAM-1. The assay has been successfully used in the past to determine the selectivity of small molecule LFA-1 inhibitors over the integrin VLA-4.
Experimental Protocol: The adhesion assay was performed as described above for the Jurkat/ICAM-1 V well adhesion assay. Briefly, plates were coated with anti-human IgG mAb and blocked with BSA as described above. Instead of ICAM-1, recombinant human VCAM-1/CD106 Fc chimera (R&D Systems) was coated onto the plates (0.3 μg/mL in coating buffer). After incubation, labelled Jurkat cells in binding buffer were transferred to the wells (20,000 cells/well). The plates were immediately centrifuged at 1000 rpm for 4 min at rt (Centrifuge Eppendorf 5810 R) setting the brakeoff. Non-adherent cells were quantified in the tip of the Vbottom well using a fluorescence reader. IC50 values of the compounds were calculated using the software GraphPad Prism 6.

[3] = biological target: T1, LFA-1; assay: Flow cytometry, mAb R7.1 binding to LFA-1 expressed on leukocytes; details: Jurkat cells or human PBMCs, values of independent experiments; for inhibition at 1 µM: Jurkat
Protocol: Measurement of mAb R7.1 binding to LFA-1 (mAb R7.1 binding)
Purpose of the Assay: This flow cytometry assay determines the effect of the compounds on the binding of the anti-LFA-1 mAb R7.1 to LFA-1 expressed on leukocytes.
Experimental Protocol: Jurkat cells or human peripheral blood mononuclear cells (PBMCs) were resuspended in assay buffer (50 mM Tris, 150 mM NaCl, 2 mM MgCl2, 1.5% BSA and 5 mM D-glucose monohydrate, pH7.2) at 2×10^6 cells/mL and 500 μL of this cell suspension (1×10^6 cells) were transferred into polypropylene tubes containing the test compounds diluted in 500 μL assay buffer. The samples were pre-incubated at 37° C. for 40 min, and centrifuged. The supernatants were removed and FITC-labelled anti-LFA-1 mAb R7.1 and PE-labeled anti-LFA-1 mAb TS2/4 (mAb TS2/4 is not affected by alpha I allosteric inhibitor binding to LFA-1) or appropriate isotype controls were added directly to each cell pellet. The pellets were then gently pipetted up and down and incubated on ice for 30 min in the dark. After the incubation step the cells were washed twice with PBS and resuspended in PBS.
Antibody binding was analyzed by flow cytometry. Mean fluorescence intensities (MFI) were calculated using the CellQuest software. The values are expressed as % of solvent control (solvent control=100% binding).

[4] = biological target: T1, LFA-1; assay: Flow cytometry, mAb MEM148 binding to LFA-1 expressed on leukocytes; details: solvent ctrl = 1, Jurkat cells or PBMCs
Protocol: Quantification of mAb MEM148 Binding to LFA-1 (mAb MEM148 Binding)
Purpose of the Assay: This flow cytometry assay determines the effect of the compounds on the binding of the conformation-sensitive anti-LFA-1 mAb MEM148 to LFA-1 expressed on leukocytes. The mAb MEM148 detects an epitope which becomes exposed in activated LFA-1 [Yuki 2012]
Experimental Protocol: The assay is performed as the flow cytometry assay described above.
Briefly, Jurkat cells or PBMCs in assay buffer (50 mM Tris, 150 mM NaCl, 1 mM CaCl2, 1 mM MgCl2, 5 mM Glucose, 1.5% BSA, pH 7.3) were pre-incubated with the compounds and appropriate positive controls for 40 min at rt. After incubation, the cell-suspension was centrifuged, the supernatant discarded and PE-labelled anti-LFA-1 mAb MEM148 was directly added to the pellets. After pipetting up and down, the tubes were incubated for 30 min. at 37° C. in the dark. The pellet was washed twice with 1 mL PBS and resuspended in PBS. Antibody binding was quantified by flow cytometry. Mean fluorescence intensities (MFI) were calculated using the CellQuest software.

[5] = system: Jurkat cells; assay: Toxilight BioAssay (adenylate kinase release), Jurkat; details: 24 hours exposure, mean ± SD of triplicates
From the text: (§1) Assessment of Cellular Toxicity (Toxilight Assay and CellTiter-Glo Assay)
(§2) Purpose. To detect potential cellular toxicity of present LFA-1 inhibitors two complementary assays were chosen: the Toxilight™ BioAssay (Lonza) and the CellTiter-Glo™ Luminescent Cell Viability Assay (Promega). The Toxilight assay measures cell death via the release of the cytosolic enzyme adenylate kinase into the supernatant of treated cell cultures. The CellTiter-Glo assay directly determines the key energy metabolite ATP, resulting in sensitive quantitation of the number of healthy cells in culture.
(§3) Both assays were used with two different cell lines: the Jurkat and HepG2 cell lines. Jurkat, a human lymphocytic leukemia cell line, was utilized to assess the effect of the compounds on LFA-1 expressing cells. HepG2, a human hepatocyte cell line, was used to assess the response of liver cells where drugs are metabolized. Both assays included the use of untreated cells, and cells treated with amiodarone or 0.5% Triton X 100 as cytotoxic controls.
(§4) Jurkat cells and HepG2 cells were cultured in RPMI 1640 containing 10% FCS or DMEM containing 10% FCS under standard conditions (recommended by ATCC). Compounds were dissolved in DMSO and serially pre-diluted in DMSO (100%) to avoid precipitation of the compounds, before final dilution steps in culture medium containing FCS were performed. The final DMSO concentration was kept constant at 0.5% in all samples.
(§5) The test compounds and controls were exposed to the cells for 24 hours respectively at 37° C. Then adenylate kinase activity was quantified in the supernatant of the cell cultures using the ToxiLight™ reagent. In an independent set of experiments ATP content was measured by adding the CellTiter-Glo™ reagent according to manufacturer's instructions.

[6] = system: HepG2 cells; assay: Toxilight BioAssay (adenylate kinase release), HepG2; details: 24 hours exposure, mean ± SD of triplicates
From the text: as §1, §2, §3, §4, §5

[7] = system: Jurkat cells; assay: CellTiter-Glo Luminescent Cell Viability Assay (ATP), Jurkat; details: 24 hours exposure, mean ± SD of triplicates
From the text: as §1, §2, §3, §4, §5

[8] = system: HepG2 cells; assay: CellTiter-Glo Luminescent Cell Viability Assay (ATP), HepG2; details: 24 hours exposure, mean ± SD of triplicates
From the text: as §1, §2, §3, §4, §5

T1 sequence (P20701 26-1170): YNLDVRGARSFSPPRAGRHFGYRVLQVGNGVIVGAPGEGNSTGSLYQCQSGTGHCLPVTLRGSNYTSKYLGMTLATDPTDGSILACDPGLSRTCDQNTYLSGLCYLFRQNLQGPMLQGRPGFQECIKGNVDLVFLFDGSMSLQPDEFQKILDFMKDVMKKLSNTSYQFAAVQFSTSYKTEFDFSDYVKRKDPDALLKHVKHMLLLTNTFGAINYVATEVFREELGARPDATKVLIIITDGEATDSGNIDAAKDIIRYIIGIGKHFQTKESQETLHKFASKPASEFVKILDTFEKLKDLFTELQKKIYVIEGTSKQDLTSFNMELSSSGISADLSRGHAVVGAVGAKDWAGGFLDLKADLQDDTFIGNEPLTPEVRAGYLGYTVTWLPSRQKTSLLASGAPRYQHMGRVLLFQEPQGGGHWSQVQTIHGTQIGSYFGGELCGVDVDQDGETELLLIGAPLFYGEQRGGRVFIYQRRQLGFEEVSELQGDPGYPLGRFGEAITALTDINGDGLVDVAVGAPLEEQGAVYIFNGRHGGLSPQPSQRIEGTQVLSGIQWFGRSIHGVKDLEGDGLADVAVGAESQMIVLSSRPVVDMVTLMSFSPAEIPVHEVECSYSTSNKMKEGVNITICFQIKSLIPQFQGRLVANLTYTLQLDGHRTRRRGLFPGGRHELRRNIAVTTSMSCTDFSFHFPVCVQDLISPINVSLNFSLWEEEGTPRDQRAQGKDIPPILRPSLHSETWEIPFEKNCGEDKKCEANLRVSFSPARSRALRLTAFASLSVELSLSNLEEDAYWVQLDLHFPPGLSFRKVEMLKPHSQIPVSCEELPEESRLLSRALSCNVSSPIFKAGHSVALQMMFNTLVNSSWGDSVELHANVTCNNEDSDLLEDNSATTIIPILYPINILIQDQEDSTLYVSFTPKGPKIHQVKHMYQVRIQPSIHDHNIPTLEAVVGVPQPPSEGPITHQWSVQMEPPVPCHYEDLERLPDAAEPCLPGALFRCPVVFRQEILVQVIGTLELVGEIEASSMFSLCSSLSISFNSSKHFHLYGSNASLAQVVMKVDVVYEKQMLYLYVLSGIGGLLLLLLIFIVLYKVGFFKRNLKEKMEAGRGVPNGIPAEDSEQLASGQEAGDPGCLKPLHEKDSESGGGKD
T1 sequence (P05107 23-769 partner): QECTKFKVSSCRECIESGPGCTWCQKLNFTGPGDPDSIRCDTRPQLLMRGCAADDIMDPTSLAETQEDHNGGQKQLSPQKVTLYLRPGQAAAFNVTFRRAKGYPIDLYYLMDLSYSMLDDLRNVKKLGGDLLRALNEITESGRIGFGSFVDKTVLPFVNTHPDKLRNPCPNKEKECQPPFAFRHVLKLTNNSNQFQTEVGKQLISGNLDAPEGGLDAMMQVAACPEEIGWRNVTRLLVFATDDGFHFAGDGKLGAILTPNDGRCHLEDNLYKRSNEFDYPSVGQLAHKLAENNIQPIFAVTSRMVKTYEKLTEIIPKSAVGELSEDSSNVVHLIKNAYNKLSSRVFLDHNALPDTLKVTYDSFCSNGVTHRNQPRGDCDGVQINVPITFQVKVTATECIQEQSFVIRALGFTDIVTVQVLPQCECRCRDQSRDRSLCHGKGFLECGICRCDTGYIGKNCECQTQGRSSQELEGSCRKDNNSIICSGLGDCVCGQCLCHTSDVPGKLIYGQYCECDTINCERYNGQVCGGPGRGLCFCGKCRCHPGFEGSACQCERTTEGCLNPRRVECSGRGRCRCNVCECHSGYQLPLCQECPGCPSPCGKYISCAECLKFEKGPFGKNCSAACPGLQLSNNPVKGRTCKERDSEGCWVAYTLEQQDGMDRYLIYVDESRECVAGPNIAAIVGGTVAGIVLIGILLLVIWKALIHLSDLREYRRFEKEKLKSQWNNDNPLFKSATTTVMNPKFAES

| SMILES | IC50 [1] [nM] | IC50 [2] [nM] | mAb R7.1 binding % inhibition at 1 μM [3] [%] | inhibition at 1 µM [3] [%] | mAb MEM148 binding, binding relative to solvent ctrl at 10 μM [4] | Toxilight Jurkat % viability at 10 μM [5] [%] | Toxilight HepG2 % viability at 10 μM [6] [%] | CellTiter-Glo Jurkat % viability at 10 μM [7] [%] | CellTiter-Glo HepG2 % viability at 10 μM [8] [%] |
| --- | --- | --- | --- | --- | --- | --- | --- | --- | --- |
| C[C@]12C(=O)N(c3cc(Cl)cc(Cl)c3)C(=O)[C@H]1C2(c1ccccc1)c1ccccc1 (racemic) [4b (racemate), rac-(1S,5S)-3-(3,5-Dichlorophenyl)-1-methyl-6,6-diphenyl-3-azabicyclo[3.1.0]hexane-2,4-dione] | 1870 ± 1270 | > 10000 | 80.0 | 76.9 | 0.974 | 101 ± 9.8 | 124 ± 29.7 | 96.8 ± 4.7 | 98.4 ± 3.8 |
| C[C@]12C(=O)N(c3cc(Cl)cc(Cl)c3)C(=O)[C@H]1[C@H]2c1ccc(C#N)cc1 (racemic) [4′h (racemate), rac-4-[(1R,5S,6S)-3-(3,5-Dichlorophenyl)-1-methyl-2,4-dioxo-3-azabicyclo[3.1.0]hexan-6-yl]benzonitrile] | 147 | > 10000 | 95.8 | 96.8 | 1.00 | 93.5 ± 2.06 | 78.3 ± 35.2 | 112.6 ± 4.9 | 103.7 ± 3.2 |
| C[C@]12C(=O)N(c3cc(Cl)cc(Cl)c3)C(=O)[C@H]1[C@H]2c1ccc(Br)cc1 (racemic) [4′f (racemate), rac-(1R,5S,6S)-6-(4-Bromophenyl)-3-(3,5-dichloro-phenyl)-1-methyl-3-azabicyclo[3.1.0]hexane-2,4-dione] | 715 ± 618 | > 10000 | 91.7 | 85.2 | 0.96 | 99.9 ± 24.2 | 115.6 ± 35.1 | 115.0 ± 4.8 | 101.6 ± 4.0 |
| CC12C(=O)N(c3cc(Cl)cc(Cl)c3)C(=O)C1C2(c1ccccc1)c1ccccc1 (single isomer, unassigned) [4b enantiomer A] | 1340 ± 678 | > 10000 | – | 87.3 | no | 100 ± 12.9 | 120 ± 40.2 | 92.8 ± 4.7 | 101.5 ± 1.9 |
| C[C@]12C(=O)N(c3cc(Cl)cc(Cl)c3)C(=O)[C@H]1[C@H]2c1ccc(OC(F)(F)F)cc1 (racemic) [4′g (racemate), rac-(1R,5S,6S)-3-(3,5-Dichlorophenyl)-1-methyl-6-[4-(trifluoromethoxy)phenyl]-3-azabicyclo[3.1.0]hexane-2,4-dione] | 550 ± 206 | > 10000 | 94.1 | 93.6 | 0.89 | 116 ± 16.2 | 99.8 ± 26.5 | 111.4 ± 7.4 | 102.6 ± 4.5 |
